{
  "source": "patent US20260308158A1",
  "about": "“TARGETING RNAS ASSOCIATED WITH TAUOPATHIES WITH SMALL MOLECULES” (University of Florida Research Foundation, Incorporated, priority 2023, published 2026)",
  "key": {"[1]": {"system": "endogenous MAPT pre-mRNA in LAN5 cells", "assay": "Chem-CLIP / C-Chem-CLIP in LAN5 cells", "format": "cell-based", "details": "pre-incubation", "experimental": "Measuring Cellular Occupancy by Chem-CLIP and C-Chem-CLIP. LAN5 cells were grown to ~80% confluency in 100 mm diameter dishes. HeLa cells were transfected as described in the Luciferase Reporter Assay to Study Exon 10 Alternative Splicing except they were re-plated in 100 mm diameter dishes and grown to ~80% confluency (~1 day). The cells were then treated with 1.5 μM of 3 or 4 for 12 h. For C-Chem-CLIP, dilutions of competing compounds 1 or 2 were pre-incubated with cells for 12 h prior to adding 3. After addition of 3, the cells were incubated for an additional 12 h. After the treatment period, whether for Chem-CLIP or C-Chem-CLIP studies, the cells were washed with 10 mL of 1×DPBS. Ice-cold 1×DPBS (10 mL) was then added to the plate followed by irradiation with 365 nm light in a UV Stratalinker 2400 (Stratagene). Cells were scraped with a cell scraper, transferred to a 15 mL conical vial, and collected by centrifugation. Total RNA was extracted using TRIzol LS Reagent (Invitrogen) per the manufacturer's protocol. […]\nRT-qPCR was performed on RNA samples before and after pull-down as described in Real-Time Quantitative PCR to enable calculation of fold enrichment in the pulled down samples. Relative fold enrichment of tau pre-mRNA was measured using Equation 3: […]"}, "WT model RNA": {"system": "WT model RNA", "assay": "Optical melting, WT RNA", "format": "binding", "details": "2 at 1.5 μM", "experimental": "Optical Melting Experiments. The thermal stabilities of WT, DDPAC, and DDPAC+I17T model RNAs were analyzed by optical melting in the presence or absence of compound 1 or 2 as previously described.^18 The RNAs (2 μM) were heated to 95° C. in 1×PBS buffer and slowly cooled to room temperature. The samples were then cooled to 15° C. in the presence of compound 1 (10 μM; 0.1% (v/v) DMSO), 2 (1.5 μM; 0.1% (v/v) DMSO) or vehicle (0.1% (v/v) DMSO) and then heated to 85° C. at a rate of 1° C. per min. Absorbance as a function of temperature was measured at 260 nm using a Beckman Coulter DU800 UV/vis spectrophotometer. Melting curves were fitted with MeltWin 3.5.^31"}, "LAN5 transcriptome": {"system": "LAN5 transcriptome", "assay": "RNA-seq transcriptome-wide selectivity in LAN5 cells", "format": "cell-based, human", "experimental": "RNA-Seq. LAN5 cells in 12-well plate (~60% confluency) were treated with 2 (1.5 μM), 0.1% (v/v) DMSO (vehicle), 4R-to-3R tau ASO (0.5 μM), or scrambled ASO (0.5 μM) for 48 h. Total RNA was extracted using an RNeasy Mini Kit (Qiagen) per the manufacturer's protocol. Next, rRNA was depleted using NEBNext rRNA depletion modules (E6310L, New England Biosciences) and prepared with NEBNext Ultra II Dir RNA Lib Prep Kit (E7760S, New England Biosciences) according to the manufacturer's protocol. The prepared libraries were processed with NextSeq 500/550 High Output Kit v2.5 (Illumina, 20024907) per the manufacturer's protocol and then sequenced on a NextSeq 500. After sequencing, the BCL files were converted to FASTQ files using basemount/0.12.8.1516 and bcl2fastq/2.17.1.14.^33 The sequencing depth was over 82 million for each sample.\nFastQC^34 and RSeQC^35 were used to determine the quality of reads and any overrepresentation of sequences. HISAT2^36 was used to map the reads to the reference human genome (hg19), and the output SAM files were converted to BAM files and sorted by index. Kallisto^37 and NCBI reference sequences (RefSeq)^38 were used for gene quantification to calculate transcripts per million (TPM). Differentially expressed genes were detected with Sleuth^39 and determined by a multiple test corrected p-value<0.05. Splicing event PSI values were quantitated using MISO.^40"}, "[2]": {"system": "WT I17T MAPT exon 10 mini-gene luciferase reporter", "assay": "Luciferase reporter assay, WT I17T mutant mini-gene in HeLa cells", "format": "cell-based", "details": "Homo sapiens, 48 h, 5 μM (highest dose), read-out: reduction of luciferase activity", "experimental": "Luciferase-reporter Assay to Study Exon 10 Alternative Splicing. The exon 10 mini-genes, both WT and DDPAC and mutant thereof, fused to firefly luciferase, have been previously described.^18 HeLa cells were seeded in 60 mm diameter dishes and incubated for 12-16 h to 70% confluency. They were then transfected with WT, WT+I17T, DDPAC, or DDPAC+I17T luciferase reporter minigenes using JetPrime (Polyplus Transfection) per the manufacturer's recommended protocol and incubated for 4 h. After transfection, the cells were collected by trypsinization and re-seeded in 96-well plates at 0.2×10^5 cells per well, followed by treatment of compounds after 4 h. Compound stocks prepared in DMSO were diluted in growth medium and added to cells with final DMSO concentration at 0.1% (v/v). After a 48 h treatment period, the cells were washed with 1× DPBS. Each well was added with a mixture of 10 μL WST-1 reagent and 90 μL of growth medium. After incubation at 37° C. for 45 min, absorbance was measured at 450 and 690 nm. A690 as background was subtracted from A450 to obtain A450′. […] The plate was incubated at room temperature for 20 min and the luminescence was measured with a […] plate reader (1000 ms integration time). The resulted luminescence was normalized to A450′."}},
  "data": [
    {"smiles": "COc1cc(N)ncc1CCCN(C)CCCn1cnc2c3ccccc3n(C)c2c1=O", "note": "[Compound 2, 3-(3-((3-(6-amino-4-methoxypyridin-3-yl)propyl)(methyl)amino)propyl)-5-methyl-3,5-dihydro-4H-pyrimido[5,4-b]indol-4-one]", "values": [
      {"measurement": "competition of cross-linking of 3", "setting": "[1]", "value": "competed by 1 or 2 in dose dependent fashion"},
      {"measurement": "increase of Tm", "setting": "WT model RNA", "value": "0.76±0.1", "unit": "°C"},
      {"measurement": "expression of MAPT gene", "setting": "LAN5 transcriptome; 2 at 1.5 μM or ASO 0.5 μM", "value": "Neither 2 nor the ASO altered the expression of MAPT gene"},
      {"measurement": "alternative splicing of MAPT exons (exon 10)", "setting": "LAN5 transcriptome; 2 at 1.5 μM or tau ASO 0.5 μM", "value": "only one significantly reduced"},
      {"measurement": "genes unchanged, percent", "setting": "LAN5 transcriptome; 2 at 1.5 μM, 48 h", "value": 99.73, "unit": "%"},
      {"measurement": "inhibition at 5 µM", "setting": "[2]", "value": "~15", "unit": "%"}
    ]}
  ]
}
